The values that follow come from patent publication US20100267616A1, “ACUTE R[…]” (ImmuneRegen Biosciences, Inc., priority 2003, published 2010).

This assay relates to diesel fuel smoke lung injury (model of ARDS and SARS). Details: species or system rats and rabbits. The settings on record: in vivo, iv.

In the case of Sar^9, Met (02) 11-Substance P, the 6-keto-PGF1α entry was “decreased”, the PGE2 result is recorded as “decreased”, the clara cell necrosis entry is given as “attenuated” and the “damage to the alveolar-capillary barrier membrane” value is on record as “attenuates”. The “pulmonary alveolar macrophage number” value is reported as “reduced”.
